Test results from PubChem BioAssay (NCI).
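The compound was tested at five concentrations on cells cultured in 96-well plates, with a 48-hour exposure period. At the TGI there is no net growth.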

Columns and labels:
Test in all cases: NCI-60 cell line screen, 48 h
SF-295 CNS = tested on: SF-295 CNS
OVCAR-4 ovarian = tested on: OVCAR-4 ovarian
786-0 renal = tested on: 786-0 renal
KM12 colon = tested on: KM12 colon
MDA-MB-231 breast = tested on: MDA-MB-231 breast
OVCAR-5 ovarian = tested on: OVCAR-5 ovarian
SNB-75 CNS = tested on: SNB-75 CNS
SN12C renal = tested on: SN12C renal
CAKI-1 renal = tested on: CAKI-1 renal
RXF 393 renal = tested on: RXF 393 renal
MDA-N = tested on: MDA-N
BT-549 breast = tested on: BT-549 breast
COLO 205 colon = tested on: COLO 205 colon
UACC-257 melanoma = tested on: UACC-257 melanoma
PC-3 prostate = tested on: PC-3 prostate
HS 578T breast = tested on: HS 578T breast
K-562 leukemia = tested on: K-562 leukemia
UO-31 renal = tested on: UO-31 renal
DU-145 prostate = tested on: DU-145 prostate
CCRF-CEM leukemia = tested on: CCRF-CEM leukemia
HOP-62 NSCLC = tested on: HOP-62 NSCLC
NCI-H23 lung = tested on: NCI-H23 lung
M14 melanoma = tested on: M14 melanoma
SNB-19 CNS = tested on: SNB-19 CNS
IGROV1 ovarian = tested on: IGROV1 ovarian
RPMI-8226 leukemia = tested on: RPMI-8226 leukemia
T-47D breast = tested on: T-47D breast
OVCAR-8 ovarian = tested on: OVCAR-8 ovarian
OVCAR-3 ovarian = tested on: OVCAR-3 ovarian
A549 NSCLC = tested on: A549 NSCLC
SK-MEL-28 melanoma = tested on: SK-MEL-28 melanoma
NCI-H522 lung = tested on: NCI-H522 lung
LOX IMVI melanoma = tested on: LOX IMVI melanoma
MOLT-4 leukemia = tested on: MOLT-4 leukemia
EKVX NSCLC = tested on: EKVX NSCLC
SR leukemia = tested on: SR leukemia
NCI-H226 lung = tested on: NCI-H226 lung
NCI/ADR-RES ovarian = tested on: NCI/ADR-RES ovarian
SK-MEL-5 melanoma = tested on: SK-MEL-5 melanoma
UACC-62 melanoma = tested on: UACC-62 melanoma
HCT-15 colon = tested on: HCT-15 colon
ACHN renal = tested on: ACHN renal
MALME-3M melanoma = tested on: MALME-3M melanoma
NCI-H460 lung = tested on: NCI-H460 lung
HCT-116 colon = tested on: HCT-116 colon
SF-268 CNS = tested on: SF-268 CNS
MDA-MB-435 = tested on: MDA-MB-435
MCF7 breast = tested on: MCF7 breast
U251 CNS = tested on: U251 CNS
HT29 colon = tested on: HT29 colon
SK-OV-3 ovarian = tested on: SK-OV-3 ovarian
TK-10 renal = tested on: TK-10 renal
SK-MEL-2 melanoma = tested on: SK-MEL-2 melanoma
HL-60(TB) leukemia = tested on: HL-60(TB) leukemia
A498 renal = tested on: A498 renal
SF-539 CNS = tested on: SF-539 CNS
HCC-2998 colon = tested on: HCC-2998 colon
SW-620 colon = tested on: SW-620 colon
HOP-92 NSCLC = tested on: HOP-92 NSCLC

Measured: TGI

S=C1CC(c2ccccc2)Sc2cc(Cl)ccc2N1 (centres undefined)
24.7 µM: SF-268 CNS
18.1 µM: RXF 393 renal
19.9 µM: SK-OV-3 ovarian
30.5 µM: NCI/ADR-RES ovarian
11.2 µM: K-562 leukemia
18.4 µM: HOP-62 NSCLC
29.4 µM: SK-MEL-5 melanoma
22.2 µM: NCI-H23 lung
38.7 µM: SNB-19 CNS
39.6 µM: MDA-N
27 µM: ACHN renal
32.7 µM: NCI-H226 lung
28 µM: OVCAR-4 ovarian
84.5 µM: IGROV1 ovarian
83.7 µM: SR leukemia
44.9 µM: UACC-62 melanoma
16.9 µM: NCI-H522 lung
17.7 µM: 786-0 renal | U251 CNS
17.2 µM: HCT-116 colon
20.8 µM: SNB-75 CNS
34.8 µM: MCF7 breast
22.8 µM: NCI-H460 lung
28.2 µM: MOLT-4 leukemia
9.33 µM: CCRF-CEM leukemia
84 µM: HS 578T breast
29 µM: CAKI-1 renal
20.7 µM: MDA-MB-231 breast
30 µM: MDA-MB-435
38.9 µM: TK-10 renal
51.8 µM: SK-MEL-28 melanoma
38.4 µM: A549 NSCLC
12.6 µM: SF-295 CNS
8.49 µM: OVCAR-3 ovarian
93.6 µM: MALME-3M melanoma
31.3 µM: OVCAR-8 ovarian
not listed: SK-MEL-2 melanoma | HL-60(TB) leukemia | A498 renal | SF-539 CNS | HCC-2998 colon | SW-620 colon | HOP-92 NSCLC
> 100 µM: all other assays above

Cc1cc(C)nc(NS(=O)(=O)c2ccc(NC(=O)NC(F)(F)F)cc2)n1
72.8 µM: CAKI-1 renal
not listed: SF-295 CNS | OVCAR-4 ovarian | KM12 colon | MDA-MB-231 breast | DU-145 prostate | HOP-62 NSCLC | OVCAR-3 ovarian | NCI-H522 lung | NCI-H226 lung | UACC-62 melanoma | MALME-3M melanoma | NCI-H460 lung | MCF7 breast | HOP-92 NSCLC
> 100 µM: all other assays above

Cc1ccc(C(=O)Oc2ccc(/C=C3\CCC/C(=C\c4ccc(OC(=O)c5ccc(C)cc5)cc4)C3=O)cc2)cc1
not listed: RXF 393 renal | K-562 leukemia | NCI-H226 lung | MALME-3M melanoma | SK-OV-3 ovarian | A498 renal
> 100 µM: all other assays above

O=S(=O)(c1cc(Cl)ccc1Cl)N1CCN(c2cccc(Cl)c2)CC1
not listed: COLO 205 colon | M14 melanoma | NCI/ADR-RES ovarian | UACC-62 melanoma | MDA-MB-435 | SK-OV-3 ovarian | SK-MEL-2 melanoma
> 100 µM: all other assays above

Cn1cc(-c2nnc(-c3ccc(Cl)cc3)[nH]c2=O)c2ccccc21
42.7 µM: TK-10 renal
> 24 µM: HL-60(TB) leukemia
> 61 µM: A498 renal
> 44.1 µM: NCI-H460 lung
> 23.9 µM: KM12 colon
> 66.3 µM: HCT-116 colon
> 24.6 µM: HT29 colon
> 51.9 µM: UACC-62 melanoma
> 44.6 µM: 786-0 renal
> 64.6 µM: SW-620 colon
> 84.9 µM: MDA-MB-231 breast
35.1 µM: SNB-75 CNS
> 54.7 µM: SNB-19 CNS
> 37.5 µM: U251 CNS
44.7 µM: RPMI-8226 leukemia
> 76.1 µM: ACHN renal
> 47 µM: UO-31 renal
> 64 µM: SN12C renal
> 64.9 µM: EKVX NSCLC
> 43.7 µM: SK-MEL-5 melanoma
> 37.3 µM: SK-MEL-2 melanoma
> 28.3 µM: SF-295 CNS
98.8 µM: MOLT-4 leukemia
14.9 µM: OVCAR-3 ovarian
6.16 µM: NCI-H522 lung
> 24.3 µM: UACC-257 melanoma
> 69.8 µM: SK-OV-3 ovarian
1.4 µM: MDA-MB-435
> 78.7 µM: PC-3 prostate
> 22.1 µM: RXF 393 renal
> 51.8 µM: DU-145 prostate
> 75.8 µM: HOP-62 NSCLC
35.4 µM: NCI-H226 lung
> 22.7 µM: CCRF-CEM leukemia
8.03 µM: NCI/ADR-RES ovarian
> 39.6 µM: MCF7 breast
1.83 µM: MDA-N
> 25.8 µM: MALME-3M melanoma
not listed: SF-539 CNS | HCC-2998 colon
> 100 µM: all other assays above

O=C1CS(=O)(=O)C(c2cccc(Oc3ccccc3)c2)N1C1CC1 (centres undefined)
64.2 µM: OVCAR-4 ovarian
39.3 µM: SK-MEL-5 melanoma
80.1 µM: MDA-N
80 µM: ACHN renal
80.7 µM: SNB-75 CNS
58 µM: MCF7 breast
83.6 µM: NCI-H226 lung
75.1 µM: MDA-MB-435
72.9 µM: COLO 205 colon
55.1 µM: RXF 393 renal
67.7 µM: SK-OV-3 ovarian
66.2 µM: PC-3 prostate
not listed: CAKI-1 renal | HOP-62 NSCLC | IGROV1 ovarian | RPMI-8226 leukemia | A498 renal
> 100 µM: all other assays above

CC(C(=O)n1ccnc1)N1c2ccccc2Sc2ccccc21 (centres undefined)
79.9 µM: HOP-92 NSCLC
not listed: CAKI-1 renal | NCI-H522 lung | HCC-2998 colon
> 100 µM: all other assays above
